Positions of bridges follow the written chain, without caps; N, C: chain ends. Residues, ends and D or L forms follow the SMILES beside them.
How the values were obtained:
hNaV1.1 to hNaV1.7 = assay: NaV subtype preference across NaV1.1 to NaV1.7, patch clamp; type: cell-based, human; conditions: NaV1.1 to NaV1.7, closed-state voltage protocol
Procedure: Unless otherwise specified, all cell culture reagents were obtained from Life Technologies (Carlsbad, CA, USA). The human neuroblastoma cell line SH-SY5Y (ATCC CRL-2266; Manassas, VA, USA) was maintained in RPMI medium supplemented with 15% fetal bovine serum (FBS) and 2 mM L-glutamine. HEK293 cells stably expressing human NaV channel isoforms together with the β1 auxiliary subunit (SB Drug Discovery, Glasgow, UK) were propagated in Minimal Essential Medium (MEM; Sigma-Aldrich, St. Louis, MO, USA) containing 10% FBS, 100 U/mL penicillin, 100 µg/mL streptomycin, 2 mM L-glutamine, and selective antibiotics (blasticidin, geneticin, and zeocin) at concentrations recommended by the supplier. HEK293T cells expressing the human CaV3.2 channel (a generous gift from Prof. Emmanuel Bourinet, Institut de Génomique Fonctionnelle, Université de Montpellier, France, and Prof. Edward Perez-Reyes, University of Virginia School of Medicine, USA) were grown in Dulbecco’s MEM supplemented with 10% FBS, 100 U/mL penicillin, 100 µg/mL streptomycin, and 750 µg/mL geneticin.
Sodium channel currents were recorded from HEK293 cells expressing human NaV isoforms together with the β1 auxiliary subunit (SB Drug Discovery, Glasgow, UK) using the QPatch 16X automated whole-cell patch-clamp platform (Sophion Bioscience A/S, Ballerup, Denmark). The external recording solution contained (in mM) the following: 140 NaCl, 3 KCl, 1 CaCl2, 1 MgCl2, 0.1 CdCl2, 20 tetraethylammonium chloride (TEA-Cl), and 5 HEPES; pH was adjusted to 7.3 and osmolarity to 320 mOsm. The internal (pipette) solution consisted of (in mM) the following: 140 CsF, 10 NaCl, 10 HEPES, and 1/5 EGTA/CsOH, also adjusted to pH 7.3 and 320 mOsm. […] For determining the potency of Oa1a peptides to inhibit peak current, the maximum peak current within the 20 ms at 0 mV was measured. For determining the potency of Oa1a-NH2 to slow fast inactivation, peak current values were measured at 20 ms of the 0 mV depolarization step. […]
For calcium influx experiments, bioactivity comparisons between venom fractions and controls were based on the difference between the maximal and minimal fluorescence intensity values obtained from single-replicate assays. […] Reversibility and dissociation kinetics were analyzed by fitting data with a single-phase exponential decay model, while voltage-dependence of steady-state activation and inactivation parameters were derived from Boltzmann sigmoid fits of normalized conductance (G/Gmax) or current (I/Imax) values to determine the half-activation or half-inactivation voltages (V50). Data are expressed as mean ± SEM, where n represents the number of individual cells analyzed.

NaV1.3 = NaV1.3 (Homo sapiens, UniProt Q9NY46); assay: Slowing of fast inactivation of NaV1.3; type: cell-based
Procedure: Sodium channel currents were recorded from HEK293 cells expressing human NaV isoforms together with the β1 auxiliary subunit (SB Drug Discovery, Glasgow, UK) using the QPatch 16X automated whole-cell patch-clamp platform (Sophion Bioscience A/S, Ballerup, Denmark). The external recording solution contained (in mM) the following: 140 NaCl, 3 KCl, 1 CaCl2, 1 MgCl2, 0.1 CdCl2, 20 tetraethylammonium chloride (TEA-Cl), and 5 HEPES; pH was adjusted to 7.3 and osmolarity to 320 mOsm. The internal (pipette) solution consisted of (in mM) the following: 140 CsF, 10 NaCl, 10 HEPES, and 1/5 EGTA/CsOH, also adjusted to pH 7.3 and 320 mOsm. Cells were voltage-clamped at a holding potential of −80 mV, and inward Na^+ currents were evoked by 20 ms depolarizing pulses to 0 mV following a 200 ms hyperpolarizing prepulse to −120 mV. To obtain concentration–response curves, cells at holding potential were incubated for 5 min with increasing concentrations of Oa1a peptides. For determining the potency of Oa1a peptides to inhibit peak current, the maximum peak current within the 20 ms at 0 mV was measured. For determining the potency of Oa1a-NH2 to slow fast inactivation, peak current values were measured at 20 ms of the 0 mV depolarization step. Ion currents (INa) were plotted as I/Imax, where I = current value and Imax = highest current value within the experiment.
For calcium influx experiments, bioactivity comparisons between venom fractions and controls were based on the difference between the maximal and minimal fluorescence intensity values obtained from single-replicate assays. Electrophysiological data analysis was conducted using GraphPad Prism (version 8; GraphPad Software, San Diego, CA, USA). Nonlinear regression was applied to fit the concentration–response relationships using a variable Hill slope: log(inhibitor) versus normalized response for determining IC50 values, and log(agonist) versus normalized response for EC50 calculations. Reversibility and dissociation kinetics were analyzed by fitting data with a single-phase exponential decay model, while voltage-dependence of steady-state activation and inactivation parameters were derived from Boltzmann sigmoid fits of normalized conductance (G/Gmax) or current (I/Imax) values to determine the half-activation or half-inactivation voltages (V50). Data are expressed as mean ± SEM, where n represents the number of individual cells analyzed.

Sequence of NaV1.3 (Q9NY46 whole entry, canonical isoform): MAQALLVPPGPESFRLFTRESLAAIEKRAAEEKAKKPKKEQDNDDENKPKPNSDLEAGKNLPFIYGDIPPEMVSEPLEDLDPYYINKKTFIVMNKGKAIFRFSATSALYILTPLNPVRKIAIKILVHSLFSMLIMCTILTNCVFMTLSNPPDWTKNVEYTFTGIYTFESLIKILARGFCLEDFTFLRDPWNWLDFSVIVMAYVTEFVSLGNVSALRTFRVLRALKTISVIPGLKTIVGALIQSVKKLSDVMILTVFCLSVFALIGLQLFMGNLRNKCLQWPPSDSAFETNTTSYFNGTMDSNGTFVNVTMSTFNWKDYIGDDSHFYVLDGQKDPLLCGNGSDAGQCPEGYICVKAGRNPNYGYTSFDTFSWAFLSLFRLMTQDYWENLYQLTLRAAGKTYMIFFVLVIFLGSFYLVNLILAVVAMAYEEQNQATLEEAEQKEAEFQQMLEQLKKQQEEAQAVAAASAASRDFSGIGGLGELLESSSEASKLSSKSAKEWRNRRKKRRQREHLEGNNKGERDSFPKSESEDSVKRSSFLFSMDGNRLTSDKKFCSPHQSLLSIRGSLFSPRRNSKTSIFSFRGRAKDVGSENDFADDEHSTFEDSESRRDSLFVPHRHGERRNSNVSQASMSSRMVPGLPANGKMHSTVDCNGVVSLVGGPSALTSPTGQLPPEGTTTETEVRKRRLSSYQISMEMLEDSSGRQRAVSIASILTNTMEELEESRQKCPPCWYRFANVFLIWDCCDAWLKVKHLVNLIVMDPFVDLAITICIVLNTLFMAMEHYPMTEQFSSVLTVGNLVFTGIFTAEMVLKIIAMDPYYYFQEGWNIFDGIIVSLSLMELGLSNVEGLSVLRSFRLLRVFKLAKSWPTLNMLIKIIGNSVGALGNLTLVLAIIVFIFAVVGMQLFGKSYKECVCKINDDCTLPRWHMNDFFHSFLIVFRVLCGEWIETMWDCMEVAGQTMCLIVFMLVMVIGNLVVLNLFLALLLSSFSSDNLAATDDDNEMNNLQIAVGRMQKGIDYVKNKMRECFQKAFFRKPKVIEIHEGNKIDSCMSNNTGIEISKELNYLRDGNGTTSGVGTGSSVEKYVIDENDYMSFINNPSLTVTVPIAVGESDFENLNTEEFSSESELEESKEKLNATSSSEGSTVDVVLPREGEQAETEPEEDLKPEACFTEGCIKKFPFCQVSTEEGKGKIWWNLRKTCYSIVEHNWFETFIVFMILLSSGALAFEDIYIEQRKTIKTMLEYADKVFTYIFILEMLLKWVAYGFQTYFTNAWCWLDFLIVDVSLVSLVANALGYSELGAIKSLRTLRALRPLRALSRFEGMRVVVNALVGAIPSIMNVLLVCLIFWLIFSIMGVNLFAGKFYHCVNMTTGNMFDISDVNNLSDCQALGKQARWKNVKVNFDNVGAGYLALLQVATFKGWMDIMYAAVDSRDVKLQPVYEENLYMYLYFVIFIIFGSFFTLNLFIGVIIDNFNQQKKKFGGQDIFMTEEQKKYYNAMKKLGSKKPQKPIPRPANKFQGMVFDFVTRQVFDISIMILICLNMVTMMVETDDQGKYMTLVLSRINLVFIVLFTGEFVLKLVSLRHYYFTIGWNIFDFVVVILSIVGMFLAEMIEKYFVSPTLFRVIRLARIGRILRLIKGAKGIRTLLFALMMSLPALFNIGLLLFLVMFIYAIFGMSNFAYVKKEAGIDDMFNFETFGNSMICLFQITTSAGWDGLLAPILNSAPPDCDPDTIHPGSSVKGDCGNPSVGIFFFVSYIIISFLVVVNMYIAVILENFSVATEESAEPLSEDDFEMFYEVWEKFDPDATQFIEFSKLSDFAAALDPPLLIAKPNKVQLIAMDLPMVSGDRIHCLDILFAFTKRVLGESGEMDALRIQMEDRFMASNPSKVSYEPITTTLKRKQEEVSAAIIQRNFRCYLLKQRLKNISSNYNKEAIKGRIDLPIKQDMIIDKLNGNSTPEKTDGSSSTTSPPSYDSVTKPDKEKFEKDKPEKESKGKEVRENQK
Sequence of NaV1.3 (Q07699 19-218, further chain): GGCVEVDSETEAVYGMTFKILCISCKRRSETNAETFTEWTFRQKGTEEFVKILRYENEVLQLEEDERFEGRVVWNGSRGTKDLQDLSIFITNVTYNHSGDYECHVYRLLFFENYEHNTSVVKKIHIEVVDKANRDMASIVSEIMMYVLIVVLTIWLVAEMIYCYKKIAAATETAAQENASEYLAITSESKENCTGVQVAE

`CC(C)C[C@@H]1NC(=O)[C@H](Cc2ccccc2)NC(=O)[C@H](Cc2ccc(O)cc2)NC(=O)[C@H](CCCNC(=N)N)NC(=O)[C@@H](NC(=O)[C@H](CCC(=O)O)NC(=O)CN)CSSC[C@@H]2NC(=O)[C@@H]3CSSC[C@@H](C(=O)N[C@H](C(=O)N[C@@H](Cc4c[nH]c5ccccc45)C(=O)N[C@@H](CC(=O)O)C(=O)N[C@@H](Cc4c[nH]c5ccccc45)C(=O)N[C@H](C(=O)N[C@@H](Cc4ccccc4)C(=O)O)[C@@H](C)O)C(C)C)NC(=O)[C@H](Cc4c[nH]c5ccccc45)NC(=O)[C@H](CCC(N)=O)NC(=O)[C@H](Cc4c[nH]cn4)NC(=O)[C@H](CCCCN)NC(=O)[C@H](CC(N)=O)NC(=O)[C@H](Cc4c[nH]cn4)NC(=O)[C@H](CSSC[C@H](NC(=O)CNC(=O)CNC1=O)C(=O)N[C@@H](CO)C(=O)N[C@@H](CCC(N)=O)C(=O)NCC(=O)N[C@@H](CCC(=O)O)C(=O)N[C@@H](CCCCN)C(=O)N3)NC(=O)[C@H](C(C)C)NC(=O)[C@H](CC(C)C)NC(=O)[C@H](Cc1c[nH]cn1)NC(=O)[C@H](CCC(=O)O)NC2=O` [rOa1a] (H-GECRYFLGGCSQGEKCCEHLVCHNKHQWCVWDWTF-OH; disulfide 3-17, 10-22, 16-29; N-terminus and C-terminus assumed) was tested, and the “NaV subtype preference of inhibition (in words)” value (hNaV1.1 to hNaV1.7) was “preference for inhibiting NaV1.2, NaV1.3, NaV1.6, and NaV1.7”, the “NaV subtype preference of inhibition (in words)” value (hNaV1.1 to hNaV1.7; listed as recombinant Oa1a) was “preference for inhibiting NaV1.2, NaV1.6, and NaV1.7” and the “Slowing of fast inactivation of NaV1.3 (in words)” value (NaV1.3; closed-state voltage protocol, current traces, concentrations up to those of IC50 curves) was “strongly slowing the fast inactivation of NaV1.3”. For the same molecule, the “Fold less potency in slowing fast inactivation of NaV1.3 compared to sOa1a-NH2” value (NaV1.3; ratio of EC50 values) was 4.8 fold.

Source: article PMC12656268, “Venom Peptides Across Asian and American Tarantulas Utilize Dual Pharmacology to Target Activation and Fast Inactivation of Voltage-Gated Sodium Channels” (Toxins, 2025)
